Assay results taken from patent US6761885B1, “Strain of Lactobacillus plantarum and uses thereof” (SCA Hygiene Products AB, priority 1998, dated 2004).
Like-named read-outs stand apart in the source and are kept apart here.

How the values were obtained:
LB931 [1] = experiment: Sensitivity to antibiotic substances by the SIR system; format: cell-based, Lactobacillus plantarum; set-up: key to Indication: S means sensitive; R strands for resistant; conditions: for Indication / Zone: SIR system
Description: The sensitivity to antibiotic substances was also determined using the SIR system. In table VI below S means sensitive and R strands for resistant.

LB931 [2] = experiment: MIC test for the spermacidal agent Tergitol NP-9; format: cell-based, Lactobacillus plantarum; conditions: for Cfu/ml LB931: 18 h, 37 °C, inoculated 1.0×10^7 cfu
Description: MIC tests were also carried out for the spermacidal agent Tergitol. LB931 was grown on MRS agar in 5% CO2, 37° C. for 48 h. The bacteria were inoculated in 3 ml MRS broth and incubated for 10 h under the same conditions as previously 1.5% of the culture was reinoculated to 3 ml MRS broth and was incubated under the same conditions for 18 h. NP-9 Tergitol (Sigma, US) Lot 47F0002 was diluted in MRS broth having a temperature of 37° C. (reduced viscosity) to a stock solution of 40%. […] 10 μl bacterial culture was added to each solution. The blank solution was mixed and added to MRS agar plates. The plates were grown in 5% CO2, 37° C. for 48 h for determining the cell density. The rest of the solutions were incubated without mixing in 5% CO2, 37° C. for 18 h. The solution containing 30% and 40% NP-9 were diluted in 37 ° C. MRS broth (reduced viscosity). All solutions were vigorously mixed; diluted in sterile 0.9% NaCl and added to MRS agar plates The plates were incubated in 5% CO2, 37° C. for 48 h for determining cfu/ml.
Inoculated amount of LB931 was 1.0×10^7 .cfu

[3] = tested on: Lactobacillus plantarum LB931; experiment: MIC of antibiotics by E-test; format: cell-based
Description: MIC values of Lactobacillus plantarum LB931 were determined using E-test (Brown et al. J Antimicrob Chemother 1991;27:185-190).

[4] = Lactiplantibacillus plantarum, LB931, E-test, read-out: MIC

## Mecillinam/Ampicillin
LB931 [1]
  Indication: S
  Zone: 41 mm

## Tergitol NP-9
LB931 [2]; 1% Tergitol NP-9 in MRS broth
  Cfu/ml LB931: 2.5 × 10^9 Cfu/ml
LB931 [2]; 5% Tergitol NP-9 in MRS broth
  Cfu/ml LB931: 2.5 × 10^9 Cfu/ml
LB931 [2]; 10% Tergitol NP-9 in MRS broth
  Cfu/ml LB931: 1.6 × 10^9 Cfu/ml
LB931 [2]; 20% Tergitol NP-9 in MRS broth
  Cfu/ml LB931: 1.4 × 10^9 Cfu/ml
LB931 [2]; 30% Tergitol NP-9 in MRS broth
  Cfu/ml LB931: 1.0 × 10^9 Cfu/ml
LB931 [2]; 40% Tergitol NP-9 in MRS broth
  Cfu/ml LB931: 6.9 × 10^7 Cfu/ml
LB931 [2]; up to 40% tergitol NP-9
  Survival of LB931 in tergitol NP-9 in words: survive well

## Cc1ncc([N+](=O)[O-])n1CCO [Metronidazole]
[3]; [4]
  MIC: > 32 µg/mL

## CN(C)[C@@H]1C(=O)C(C(N)=O)=C(O)[C@@]2(O)C(=O)C3=C(O)c4c(O)cccc4[C@@](C)(O)[C@H]3C[C@@H]12 [Tetracyclin]
[3]; E-test
  MIC: 2 µg/mL

## Tri/sulfamethoazole
LB931 [1]
  Indication: S
  Zone: 43 mm

## CC1=C(C(=O)O)N2C(=O)[C@@H](NC(=O)[C@H](N)c3ccc(O)cc3)[C@H]2SC1 [Cefadroxil]
LB931 [1]
  Indication: S
  Zone: 24 mm

## NCC[C@H](O)C(=O)N[C@@H]1C[C@H](N)[C@@H](O[C@H]2O[C@H](CN)[C@@H](O)[C@H](O)[C@H]2O)[C@H](O)[C@H]1O[C@H]1O[C@H](CO)[C@@H](O)[C@H](N)[C@H]1O [Amikacin]
LB931 [1]
  Indication: S
  Zone: 30 mm

## CC(C)(O/N=C(\C(=O)N[C@@H]1C(=O)N2C(C(=O)[O-])=C(C[n+]3ccccc3)CS[C@H]12)c1csc(N)n1)C(=O)O [Ceftazidime]
LB931 [1]
  Indication: S
  Zone: 35 mm

## O=C1CN(/N=C/c2ccc([N+](=O)[O-])o2)C(=O)N1 [Nitrofuantin]
LB931 [1]
  Indication: S
  Zone: 36 mm

## CC[C@H]1OC(=O)[C@H](C)[C@@H](O[C@H]2C[C@@](C)(OC)[C@@H](O)[C@H](C)O2)[C@H](C)[C@@H](O[C@@H]2O[C@H](C)C[C@H](N(C)C)[C@H]2O)[C@](C)(O)C[C@@H](C)C(=O)[C@H](C)[C@@H](O)[C@]1(C)O [Erythromycin]
[3]; [4]
  MIC: 0.25 µg/mL

## CCC[C@@H]1C[C@@H](C(=O)N[C@@H]([C@H]2O[C@H](SC)[C@H](O)[C@@H](O)[C@H]2O)[C@H](C)Cl)N(C)C1 [Clindamycin]
LB931 [1]
  Indication: S
  Zone: 35 mm

## Cc1onc(-c2ccccc2)c1C(=O)N[C@@H]1C(=O)N2[C@@H]1SC(C)(C)[C@@H]2C(=O)O [Oxacillin]
LB931 [1]
  Indication: R
  Zone: 0 mm

## Piperacin/Tazobactam
[3]; E-test
  MIC: 2 µg/mL

## C[C@H]1[C@H](NC(=O)/C(=N\OC(C)(C)C(=O)O)c2csc(N)n2)C(=O)N1S(=O)(=O)O [Aztreonam]
LB931 [1]
  Indication: R
  Zone: 0 mm

## CO/N=C(\C(=O)N[C@@H]1C(=O)N2C(C(=O)O)=C(COC(C)=O)CS[C@H]12)c1csc(N)n1 [Cefotaxime]
[3]; [4]
  MIC: 0.094 µg/mL

## CCn1cc(C(=O)O)c(=O)c2ccc(C)nc21 [Nalidixin acid]
LB931 [1]
  Sensitivity of LB931 in words: resistant
  Indication: R
  Zone: 0 mm

## C[C@@H](O)[C@H]1C(=O)N2C(C(=O)O)=C(SCCN=CN)C[C@H]12 [Imipenem]
[3]; [4]
  MIC: 0.016 µg/mL

## CC(=O)OCC1=C(C(=O)O)N2C(=O)[C@@H](NC(=O)Cc3cccs3)[C@H]2SC1 [Cefalotin]
LB931 [1]
  Indication: S
  Zone: 22 mm

## CCn1cc(C(=O)O)c(=O)c2cc(F)c(N3CCNCC3)cc21 [Norfloxacin]
LB931 [1]
  Sensitivity of LB931 in words: resistant
  Indication: R
  Zone: 0 mm

## CC1(C)S[C@@H]2[C@H](NC(=O)Cc3ccccc3)C(=O)N2[C@H]1C(=O)O [Benzylpenicillin]
[3]; [4]
  MIC: 0.5 µg/mL

## CO/N=C(\C(=O)N[C@@H]1C(=O)N2C(C(=O)[O-])=C(C[n+]3cccc4c3CCC4)CS[C@H]12)c1csc(N)n1 [Cefipirome]
LB931 [1]
  Indication: S
  Zone: 47 mm

## CC1(C)S[C@@H]2[C@H](NC(=O)[C@H](N)c3ccccc3)C(=O)N2[C@H]1C(=O)O [Ampicillin]
[3]; [4]
  MIC: 0.19 µg/mL

## CC1(C)S[C@@H]2[C@H](/N=C/N3CCCCCC3)C(=O)N2[C@H]1C(=O)O [Mecillinam]
LB931 [1]
  Indication: R
  Zone: 0 mm

## CCN[C@@H]1C[C@H](N)[C@@H](O[C@H]2OC(CN)=CC[C@H]2N)[C@H](O)[C@H]1O[C@H]1OC[C@](C)(O)[C@H](NC)[C@H]1O [Netilmycin]
LB931 [1]
  Indication: R
  Zone: 0 mm

## COc1cc(Cc2cnc(N)nc2N)cc(OC)c1OC [Trimetoprim]
[3]; E-test
  MIC: 0.016 µg/mL

## Gentamycin
[3]; E-test
  MIC: 0.25 µg/mL

## CN[C@H](CC(C)C)C(=O)N[C@H]1C(=O)N[C@@H](CC(N)=O)C(=O)N[C@H]2C(=O)N[C@H]3C(=O)N[C@H](C(=O)N[C@H](C(=O)O)c4cc(O)cc(O)c4-c4cc3ccc4O)[C@H](O)c3ccc(c(Cl)c3)Oc3cc2cc(c3O[C@@H]2O[C@H](CO)[C@@H](O)[C@H](O)[C@H]2O[C@H]2C[C@](C)(N)[C@H](O)[C@H](C)O2)Oc2ccc(cc2Cl)[C@H]1O [Vancomycin]
[3]
  Sensitivity of LB931 in words: resistant
[3]; Lactiplantibacillus plantarum, LB931
  MIC: > 256 µg/mL

## CO/N=C(\C(=O)N[C@@H]1C(=O)N2C(C(=O)O)=C(COC(N)=O)CS[C@H]12)c1ccco1 [Cefuroxime]
[3]; [4]
  MIC: 0.38 µg/mL

## NC[C@H]1O[C@H](O[C@H]2[C@H](O)[C@@H](O[C@H]3O[C@H](CO)[C@@H](O)[C@H](N)[C@H]3O)[C@H](N)C[C@@H]2N)[C@H](N)C[C@@H]1O [Tobramycin]
LB931 [1]
  Indication: S
  Zone: 32 mm
